Source: patent publication US10988523B2, “Modified lipidated Relaxin B chain peptides and their therapeutic use” (Sanofi, priority 2018, dated 2021)
*1 amine or outer side, *2 acyl side, *3 side chain or, on linkers, in order; H or OH if unused. Where a SMILES comes first, the peptide text is derived from it. Primed or numbered codes have the meaning given here. Side-chain parts run from the residue outwards. [ ]: non-standard residue; d: D form. The star is where a group is joined. PEG28 = NCCOCCOCCOCCOCCOCCOCCOCCOCCOCCOCCOCCOCCOCCOCCOCCOCCOCCOCCOCCOCCOCCOCCOCCOCCOCCOCCOCCOCCC(=O)O; PEG12 = NCCOCCOCCOCCOCCOCCOCCOCCOCCOCCOCCOCCOCCC(=O)O; γGlu = O=C(O)[C@H](CCC(=O)[*:2])N[*:1]; 1Nal = N[C@@H](Cc1cccc2ccccc12)C(=O)O; Stearoyl = CCCCCCCCCCCCCCCCCC(=O)*; Palmitoyl = CCCCCCCCCCCCCCCC(=O)*; Myristoyl = CCCCCCCCCCCCCC(=O)*; αMeK = C[C@](N)(CCCCN)C(=O)O; Nle = CCCC[C@H](N)C(=O)O; PEG2″ = not defined here; AEEA = NCCOCCOCC(=O)O; Aib = CC(C)(N)C(=O)O

Biological target: T1, RXFP1 (Homo sapiens, UniProt Q9HBX9)
T1 construct: OVCAR5 cells expressing endogenous RXFP1; endogenous in cells; host or cells: OVCAR5 cells
T1 sequence (Q9HBX9 1-757): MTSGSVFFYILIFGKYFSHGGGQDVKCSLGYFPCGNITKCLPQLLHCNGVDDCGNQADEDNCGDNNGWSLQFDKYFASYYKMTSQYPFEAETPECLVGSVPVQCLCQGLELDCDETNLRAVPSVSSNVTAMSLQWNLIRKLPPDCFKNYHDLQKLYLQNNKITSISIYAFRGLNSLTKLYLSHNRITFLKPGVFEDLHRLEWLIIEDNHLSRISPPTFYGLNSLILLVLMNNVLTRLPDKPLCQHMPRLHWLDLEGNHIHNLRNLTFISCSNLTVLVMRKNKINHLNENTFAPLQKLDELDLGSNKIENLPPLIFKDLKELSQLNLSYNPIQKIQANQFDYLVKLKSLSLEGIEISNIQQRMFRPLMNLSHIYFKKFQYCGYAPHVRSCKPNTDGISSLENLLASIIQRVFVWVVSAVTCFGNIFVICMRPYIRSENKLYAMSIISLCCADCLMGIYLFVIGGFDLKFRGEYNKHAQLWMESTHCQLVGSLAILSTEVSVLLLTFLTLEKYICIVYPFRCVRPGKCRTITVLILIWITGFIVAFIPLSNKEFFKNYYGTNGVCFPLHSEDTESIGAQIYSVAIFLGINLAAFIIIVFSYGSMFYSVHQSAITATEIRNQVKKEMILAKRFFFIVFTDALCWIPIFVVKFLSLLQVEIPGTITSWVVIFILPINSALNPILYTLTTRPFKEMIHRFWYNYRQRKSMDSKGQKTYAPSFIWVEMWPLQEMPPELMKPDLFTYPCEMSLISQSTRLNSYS
Test: OVCAR5 cAMP assay (HTRF), RXFP1 agonist activity
Type: cell-based
Settings: for EC50: OVCAR5 cells, cAMP HTRF, read-out: EC50 (nM), OVCAR 5 cells (cAMP); for Emax: OVCAR-5, read-out: EMax, OVCAR 5 cells (cAMP)
How it was run: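 cAMP accumulation readout: after 1 mM IBMX for 40 min, endogenous-RXFP1 OVCAR5 cells got rising peptide concentrations without FCS, 30 min, 37° C, then lysis with HTRF cAMP reagents. Nonlinear regression gave EC50; Emax expressed relative to H2-relaxin maximum, same occasion.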

[1] = maximal cAMP relative to H2-relaxin maximum (100%)

| Compound | EC50 [nM] | Emax [1] [%] | EMax, OVCAR 5 cells (cAMP) [1] [%] |
| --- | --- | --- | --- |
| CCCCCCCCCCCCCCCCCC(=O)N[C@@H](CCC(=O)N[C@@H](CCC(=O)N[C@@H](CCC(=O)NCCCC[C@H](NC(=O)CCOCCOCCOCCOCCOCCOCCOCCOCCOCCOCCOCCOCCOCCOCCOCCOCCOCCOCCOCCOCCOCCOCCOCCOCCOCCOCCOCCOCCNC(=O)[C@H](CCCCNC(C)=O)NC(=O)[C@H](CCCCN)NC(=O)[C@H](CCCNC(=N)N)NC(=O)C(C)(C)NC(=O)[C@H](CO)NC(=O)[C@H](Cc1c[nH]c2ccccc12)NC(=O)[C@@H](NC(=O)[C@H](CO)NC(=O)[C@H](CCCC)NC(=O)CNC(=O)[C@H](CCC(=O)O)NC(=O)C(C)(C)NC(=O)C(C)(C)NC(=O)[C@@H](NC(=O)[C@H](CCCCNC(C)=O)NC(=O)[C@H](C)NC(=O)[C@H](CCCNC(=N)N)NC(=O)[C@@H](NC(=O)[C@H](CCCCN)NC(=O)[C@H](CCC(=O)O)NC(=O)[C@H](CCCNC(=N)N)NC(=O)CNC(=O)[C@H](CCC(=O)O)NC(=O)[C@H](CC(C)C)NC(C)=O)C(C)C)[C@@H](C)CC)[C@@H](C)O)C(N)=O)C(=O)O)C(=O)O)C(=O)O [compound 49] (Ac-LEGREKVRAK(Ac)I[Aib][Aib]EG[Nle]STWS[Aib]RKK(Ac)[PEG28]K([γGlu-γGlu-γGlu-Stearoyl])-NH2) | – | 106 | – |
| CCCCCCCCCCCCCCCC(=O)N[C@@H](CCC(=O)N[C@@H](CCC(=O)N[C@@H](CCC(=O)NCCCC[C@H](NC(=O)[C@H](CCCCN)NC(=O)[C@H](CCCNC(=N)N)NC(=O)C(C)(C)NC(=O)[C@H](CO)NC(=O)[C@H](Cc1c[nH]c2ccccc12)NC(=O)[C@@H](NC(=O)[C@H](CO)NC(=O)[C@H](CCCC)NC(=O)CNC(=O)[C@H](CCC(=O)O)NC(=O)C(C)(C)NC(=O)C(C)(C)NC(=O)[C@@H](NC(=O)[C@H](CCC(N)=O)NC(=O)[C@H](C)NC(=O)[C@H](CCCNC(=N)N)NC(=O)[C@@H](NC(=O)[C@H](CCCCN)NC(=O)[C@H](CCC(=O)O)NC(=O)[C@H](CCCNC(=N)N)NC(=O)CNC(=O)[C@H](CCC(=O)O)NC(=O)[C@H](CC(C)C)NC(C)=O)C(C)C)[C@@H](C)CC)[C@@H](C)O)C(N)=O)C(=O)O)C(=O)O)C(=O)O [compound 8] (Ac-LEGREKVRAQI[Aib][Aib]EG[Nle]STWS[Aib]RKK([γGlu-γGlu-γGlu-Palmitoyl])-NH2) | 26.7 | 98 | – |
| CCCCCCCCCCCCCCCC(=O)N[C@@H](CCC(=O)N[C@@H](CCC(=O)N[C@@H](CCC(=O)NCCCC[C@H](NC(=O)CCOCCOCCOCCOCCOCCOCCOCCOCCOCCOCCOCCOCCNC(=O)[C@H](CCCCN)NC(=O)[C@H](CCCNC(=N)N)NC(=O)C(C)(C)NC(=O)[C@H](CO)NC(=O)[C@H](Cc1cccc2ccccc12)NC(=O)[C@@H](NC(=O)[C@H](CO)NC(=O)[C@H](CCCC)NC(=O)CNC(=O)[C@H](CCC(=O)O)NC(=O)C(C)(C)NC(=O)C(C)(C)NC(=O)[C@@H](NC(=O)[C@H](CCCCNC(C)=O)NC(=O)[C@H](C)NC(=O)[C@H](CCCNC(=N)N)NC(=O)[C@@H](NC(=O)[C@H](CCCCN)NC(=O)[C@H](CCC(=O)O)NC(=O)[C@H](CCCNC(=N)N)NC(=O)CNC(=O)[C@H](CCC(=O)O)NC(=O)[C@H](CC(C)C)NC(C)=O)C(C)C)[C@@H](C)CC)[C@@H](C)O)C(N)=O)C(=O)O)C(=O)O)C(=O)O [compound 29] (Ac-LEGREKVRAK(Ac)I[Aib][Aib]EG[Nle]ST[1Nal]S[Aib]RK[PEG12]K([γGlu-γGlu-γGlu-Palmitoyl])-NH2) | – | 78 | – |
| 127 (Ac-LEGREKVRAK(Ac)I[Aib][Aib]EG[Nle]STWS[Aib]RKLK([PEG2″-PEG2″-PEG2″-γGlu-γGlu-γGlu-Stearoyl])-NH2) [compound 127] | 4.4 | – | 88 |

Next, values leading:

| EC50 [nM] | Emax [1] [%] | EMax, OVCAR 5 cells (cAMP) [1] [%] | Compound |
| --- | --- | --- | --- |
| 1.21 | 95 | – | CCCCCCCCCCCCCCCC(=O)N[C@@H](CCC(=O)N[C@@H](CCC(=O)N[C@@H](CCC(=O)NCCCC[C@H](NC(=O)CCOCCOCCOCCOCCOCCOCCOCCOCCOCCOCCOCCOCCNC(=O)[C@H](CCCCN)NC(=O)[C@H](CCCNC(=N)N)NC(=O)C(C)(C)NC(=O)[C@H](CO)NC(=O)[C@H](Cc1c[nH]c2ccccc12)NC(=O)[C@@H](NC(=O)[C@H](CO)NC(=O)[C@H](CCSC)NC(=O)CNC(=O)[C@H](CCC(=O)O)NC(=O)C(C)(C)NC(=O)C(C)(C)NC(=O)[C@@H](NC(=O)[C@H](CCCCNC(C)=O)NC(=O)[C@H](C)NC(=O)[C@H](CCCNC(=N)N)NC(=O)[C@@H](NC(=O)[C@H](CCCCN)NC(=O)[C@H](CCC(=O)O)NC(=O)[C@H](CCCNC(=N)N)NC(=O)CNC(=O)[C@H](CCC(=O)O)NC(=O)[C@H](CC(C)C)NC(C)=O)C(C)C)[C@@H](C)CC)[C@@H](C)O)C(N)=O)C(=O)O)C(=O)O)C(=O)O [compound 25] (Ac-LEGREKVRAK(Ac)I[Aib][Aib]EGMSTWS[Aib]RK[PEG12]K([γGlu-γGlu-γGlu-Palmitoyl])-NH2) |
| 0.01 | 87 | – | CCCCCCCCCCCCCCCCCC(=O)N[C@@H](CCC(=O)NCCOCCOCC(=O)N[C@@H](CCC(=O)N[C@@H](CCC(=O)NCCOCCOCC(=O)NCCOCCOCC(=O)NCCCC[C@H](NC(=O)[C@H](CCCCN)NC(=O)[C@H](CCCCN)NC(=O)[C@H](CCCNC(=N)N)NC(=O)C(C)(C)NC(=O)[C@H](CO)NC(=O)[C@H](Cc1c[nH]c2ccccc12)NC(=O)[C@@H](NC(=O)[C@H](CO)NC(=O)[C@H](CCCC)NC(=O)CNC(=O)[C@H](CCC(=O)O)NC(=O)C(C)(C)NC(=O)C(C)(C)NC(=O)[C@@H](NC(=O)[C@H](CCC(N)=O)NC(=O)[C@H](C)NC(=O)[C@H](CCCNC(=N)N)NC(=O)[C@@H](NC(=O)[C@H](CCCCN)NC(=O)[C@H](CCC(=O)O)NC(=O)[C@H](CCCNC(=N)N)NC(=O)CNC(=O)[C@H](CCC(=O)O)NC(=O)[C@H](CC(C)C)NC(C)=O)C(C)C)[C@@H](C)CC)[C@@H](C)O)C(N)=O)C(=O)O)C(=O)O)C(=O)O [compound 99] (Ac-LEGREKVRAQI[Aib][Aib]EG[Nle]STWS[Aib]RKKK([AEEA-AEEA-γGlu-γGlu-AEEA-γGlu-Stearoyl])-NH2) |
| 0.32 | 92 | – | CCCCCCCCCCCCCCCCCC(=O)N[C@@H](CCC(=O)N[C@@H](CCC(=O)N[C@@H](CCC(=O)N[C@@H](CCC(=O)NCCCC[C@H](NC(=O)COCCOCCNC(=O)COCCOCCNC(=O)COCCOCCNC(=O)COCCOCCNC(=O)[C@H](CCCCN)NC(=O)[C@H](CCCCN)NC(=O)[C@H](CCCNC(=N)N)NC(=O)C(C)(C)NC(=O)[C@H](CO)NC(=O)[C@H](Cc1c[nH]c2ccccc12)NC(=O)[C@@H](NC(=O)[C@H](CO)NC(=O)[C@H](CCCC)NC(=O)CNC(=O)[C@H](CCC(=O)O)NC(=O)C(C)(C)NC(=O)C(C)(C)NC(=O)[C@@H](NC(=O)[C@H](CCCCNC(C)=O)NC(=O)[C@H](C)NC(=O)[C@H](CCCNC(=N)N)NC(=O)[C@@H](NC(=O)[C@H](CCCCN)NC(=O)[C@H](CCC(=O)O)NC(=O)[C@H](CCCNC(=N)N)NC(=O)CNC(=O)[C@H](CCC(=O)O)NC(=O)[C@H](CC(C)C)NC(C)=O)C(C)C)[C@@H](C)CC)[C@@H](C)O)C(N)=O)C(=O)O)C(=O)O)C(=O)O)C(=O)O [compound 15] (Ac-LEGREKVRAK(Ac)I[Aib][Aib]EG[Nle]STWS[Aib]RKK[AEEA][AEEA][AEEA][AEEA]K([γGlu-γGlu-γGlu-γGlu-Stearoyl])-NH2) |
| 0.56 | 95 | – | CCCCCCCCCCCCCC(=O)N[C@@H](CCC(=O)N[C@@H](CCC(=O)N[C@@H](CCC(=O)N[C@@H](CCC(=O)NCCCC[C@H](NC(=O)COCCOCCNC(=O)COCCOCCNC(=O)COCCOCCNC(=O)COCCOCCNC(=O)[C@H](CCCCNC(C)=O)NC(=O)[C@H](C)NC(=O)[C@H](CCCNC(=N)N)NC(=O)[C@](C)(CCCCN)NC(=O)[C@H](CO)NC(=O)[C@H](Cc1ccccc1)NC(=O)[C@@H](NC(=O)[C@H](CO)NC(=O)[C@H](CCCC)NC(=O)CNC(=O)[C@H](CCC(=O)O)NC(=O)C(C)(C)NC(=O)C(C)(C)NC(=O)[C@@H](NC(=O)[C@H](CCCCNC(C)=O)NC(=O)[C@H](C)NC(=O)[C@H](CCCNC(=N)N)NC(=O)[C@@H](NC(=O)[C@H](CCCCN)NC(=O)[C@H](CCC(=O)O)NC(=O)[C@H](CCCNC(=N)N)NC(=O)CNC(=O)[C@H](CCC(=O)O)NC(=O)[C@H](CC(C)C)NC(C)=O)C(C)C)[C@@H](C)CC)[C@@H](C)O)C(N)=O)C(=O)O)C(=O)O)C(=O)O)C(=O)O [compound 172] (Ac-LEGREKVRAK(Ac)I[Aib][Aib]EG[Nle]STFS[αMeK]RAK(Ac)[AEEA][AEEA][AEEA][AEEA]K([γGlu-γGlu-γGlu-γGlu-Myristoyl])-NH2) |
